Experimental data from ChEMBL document CHEMBL5143723, “Orally Bioavailable Enzymatic Inhibitor of CD38, MK-0159, Protects against Ischemia/Reperfusion Injury in the Murine Heart” (J Med Chem, 2022).

How the values were obtained:
[1] = Drug exposure in mouse plasma assessed as AUC of drug at 3 mg/kg, po; format: ADME, organism-based; set-up: dose 3 mg/kg, route po
[2] = biological target: T1, ADP-ribosyl cyclase/cyclic ADP-ribose hydrolase 1 (Homo sapiens, UniProt P28907)
T1 sequence (P28907 whole entry): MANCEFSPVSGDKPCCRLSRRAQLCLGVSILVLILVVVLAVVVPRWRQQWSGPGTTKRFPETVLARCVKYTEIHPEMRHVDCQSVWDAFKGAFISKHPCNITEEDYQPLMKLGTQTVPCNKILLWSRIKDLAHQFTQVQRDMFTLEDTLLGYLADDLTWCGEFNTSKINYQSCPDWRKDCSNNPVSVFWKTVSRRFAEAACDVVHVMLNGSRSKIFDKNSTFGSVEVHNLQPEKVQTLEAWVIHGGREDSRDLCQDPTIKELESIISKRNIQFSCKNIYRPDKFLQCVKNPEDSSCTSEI
Description: Inhibition of human his tagged CD38 using N6-etheno-NAD as substrate by fluorescence microplate reader assay

Row | Structure (SMILES) | AUC [1] [ng·h/mL] | IC50 [2] [µM]
1 | COCCO[C@H]1CC[C@H](NC(=O)c2cc(-c3cncs3)cc3[nH]ccc23)CC1 | 6980 | –
2 | COCCO[C@H]1CC[C@H](NC(=O)c2cc(-n3ccnc3)cc3cn[nH]c23)CC1 | 207 | –
3 | COCCO[C@H]1CC[C@H](NC(=O)c2cc(-c3cnn(C)c3)cc3cc[nH]c23)CC1 | – | > 100
4 | COCCO[C@H]1CC[C@H](NC(=O)c2cc(-c3ccccn3)cc3cc[nH]c23)CC1 | – | > 100
5 | COCCO[C@H]1CC[C@H](NC(=O)c2cc(-c3cncs3)cn3cnnc23)CC1 | – | > 100
6 | COCCO[C@H]1CC[C@H](NC(=O)c2cc(-c3cncs3)cc3[nH]cc(C#N)c23)CC1 | 75 | –
7 | COCCO[C@H]1CC[C@H](N(C)C(=O)c2cc(-c3cncs3)cc3[nH]ccc23)CC1 | – | > 100
8 | COCCO[C@H]1CC[C@H](NC(=O)c2cc(-c3cncs3)c(F)c3[nH]ccc23)CC1 | 5110 | –
